Measurements as given in US20240182487A1, “MACROCYCLES AND THEIR USE” (BLOSSOMHILL THERAPEUTICS, INC., priority 2020, published 2024).

Assays:
Format in all cases: biochemical
EGFR (Δ746-750) = EGFR (Δ746-750) (Homo sapiens (Human), UniProt P00533, DEL746-750); assay: HotSpot radiometric kinase assay, EGFR Δ746-750; details: radiometric filter-binding, 10 μM ATP
[1] = molecular target: EGFR Δ746-750/T790M/C797S mutant (Homo sapiens (Human), UniProt P00533, C797S/DEL746-750/T790M); assay: HotSpot radiometric kinase assay, EGFR Δ746-750/T790M/C797S; details: radiometric filter-binding, 10 μM ATP
Protocol: (§1) Biochemical Assays for Inhibition of Wild-Type and Mutant EGFRs
(§2) The inhibitory activities against EGFR WT, EGFR Δ752-759 mutant, EGFR Δ746-750/T790M mutant, EGFR Δ746-750/C797S mutant, EGFR Δ746-750/T790M/C797S mutant. […] Briefly, specific kinase/substrate pairs along with required cofactors were prepared in reaction buffer; 20 mM Hepes pH 7.5, 10 mM MgCl2, 1 mM EGTA, 0.02% Brij35, 0.02 mg/ml BSA, 0.1 mM Na3VO4, 2 mM DTT, 1% DMSO. Compounds were delivered into the reaction, followed ˜20 minutes later by addition of a mixture of ATP (Sigma, St. Louis MO) and ^33P ATP (Perkin Elmer, Waltham MA) to a final concentration of 10 μM. Reactions were carried out at room temperature for 120 min, followed by spotting of the reactions onto P81 ion exchange filter paper (Whatman Inc., Piscataway, NJ). Unbound phosphate was removed by extensive washing of filters in 0.75% phosphoric acid. […] IC50 values and curve fits were obtained using Prism (GraphPad Software).

[2] = molecular target: EGFR Δ746-750/T790M mutant (Homo sapiens (Human), UniProt P00533, DEL746-750/T790M); assay: HotSpot radiometric kinase assay, EGFR Δ746-750/T790M; details: radiometric filter-binding, 10 μM ATP
Protocol: as §1, §2

[3] = molecular target: EGFR Δ746-750/C797S mutant (Homo sapiens (Human), UniProt P00533, C797S/DEL746-750); assay: HotSpot radiometric kinase assay, EGFR Δ746-750/C797S; details: radiometric filter-binding, 10 μM ATP
Protocol: as §1, §2

[4] = molecular target: EGFR L858R/T790M/C797S mutant (Homo sapiens (Human), UniProt P00533, C797S/L858R/T790M); assay: HotSpot radiometric kinase assay, EGFR L858R/T790M/C797S; details: radiometric filter-binding, 10 μM ATP; read-out: EGFR (L858R/T790M/C797S/)_IC50
EGFR L858R mutant = EGFR L858R mutant (Homo sapiens (Human), UniProt P00533, L858R); assay: HotSpot radiometric kinase assay, EGFR L858R; details: radiometric filter-binding, 10 μM ATP
EGFR WT = EGFR WT (Homo sapiens (Human), UniProt P00533); assay: HotSpot radiometric kinase assay, EGFR WT; details: radiometric filter-binding, 10 μM ATP
Protocol: as §1, §2

EGFR L858R/T790M mutant = EGFR L858R/T790M mutant (Homo sapiens (Human), UniProt P00533, L858R/T790M); assay: HotSpot radiometric kinase assay, EGFR L858R/T790M; details: radiometric filter-binding, 10 μM ATP; read-out: EGFR (L858R/T790M)_IC50
EGFR L858R/C797S mutant = EGFR L858R/C797S mutant (Homo sapiens (Human), UniProt P00533, C797S/L858R); assay: HotSpot radiometric kinase assay, EGFR L858R/C797S; details: radiometric filter-binding, 10 μM ATP

EGFR WT, sequence (P00533 25-1210): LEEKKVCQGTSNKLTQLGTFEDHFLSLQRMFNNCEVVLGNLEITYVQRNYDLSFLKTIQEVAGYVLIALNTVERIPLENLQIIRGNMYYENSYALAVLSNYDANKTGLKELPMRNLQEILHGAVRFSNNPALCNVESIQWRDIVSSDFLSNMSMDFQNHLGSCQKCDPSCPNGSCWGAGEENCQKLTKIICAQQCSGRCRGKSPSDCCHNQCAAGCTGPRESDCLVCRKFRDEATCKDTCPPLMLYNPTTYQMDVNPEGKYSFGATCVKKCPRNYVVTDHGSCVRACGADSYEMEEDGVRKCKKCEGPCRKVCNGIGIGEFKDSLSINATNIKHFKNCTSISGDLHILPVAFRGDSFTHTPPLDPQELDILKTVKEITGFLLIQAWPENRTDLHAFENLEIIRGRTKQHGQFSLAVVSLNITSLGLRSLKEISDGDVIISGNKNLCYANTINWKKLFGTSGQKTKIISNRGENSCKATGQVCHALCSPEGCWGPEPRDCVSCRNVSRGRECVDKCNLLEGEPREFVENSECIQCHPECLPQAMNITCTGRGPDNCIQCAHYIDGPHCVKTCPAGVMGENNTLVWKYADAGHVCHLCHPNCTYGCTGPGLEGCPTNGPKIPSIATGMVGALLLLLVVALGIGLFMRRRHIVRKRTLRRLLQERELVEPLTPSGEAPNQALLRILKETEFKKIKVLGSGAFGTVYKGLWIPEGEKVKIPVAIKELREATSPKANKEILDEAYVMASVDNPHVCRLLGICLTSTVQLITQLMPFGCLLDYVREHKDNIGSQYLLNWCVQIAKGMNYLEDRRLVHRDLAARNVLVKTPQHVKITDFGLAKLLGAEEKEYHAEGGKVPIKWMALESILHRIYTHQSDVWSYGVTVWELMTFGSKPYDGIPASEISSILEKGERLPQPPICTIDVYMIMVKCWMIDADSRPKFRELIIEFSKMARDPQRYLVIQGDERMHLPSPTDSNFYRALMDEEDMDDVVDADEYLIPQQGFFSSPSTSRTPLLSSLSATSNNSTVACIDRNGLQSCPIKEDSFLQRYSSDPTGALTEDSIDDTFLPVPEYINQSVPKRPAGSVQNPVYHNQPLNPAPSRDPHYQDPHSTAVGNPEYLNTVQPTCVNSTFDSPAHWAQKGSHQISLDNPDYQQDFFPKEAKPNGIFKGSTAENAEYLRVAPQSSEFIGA
EGFR Δ746-750/C797S mutant, sequence (P00533 other isoform, or with tags, fused parts or gaps C797S/del 1-668/del 746-750 limits assumed): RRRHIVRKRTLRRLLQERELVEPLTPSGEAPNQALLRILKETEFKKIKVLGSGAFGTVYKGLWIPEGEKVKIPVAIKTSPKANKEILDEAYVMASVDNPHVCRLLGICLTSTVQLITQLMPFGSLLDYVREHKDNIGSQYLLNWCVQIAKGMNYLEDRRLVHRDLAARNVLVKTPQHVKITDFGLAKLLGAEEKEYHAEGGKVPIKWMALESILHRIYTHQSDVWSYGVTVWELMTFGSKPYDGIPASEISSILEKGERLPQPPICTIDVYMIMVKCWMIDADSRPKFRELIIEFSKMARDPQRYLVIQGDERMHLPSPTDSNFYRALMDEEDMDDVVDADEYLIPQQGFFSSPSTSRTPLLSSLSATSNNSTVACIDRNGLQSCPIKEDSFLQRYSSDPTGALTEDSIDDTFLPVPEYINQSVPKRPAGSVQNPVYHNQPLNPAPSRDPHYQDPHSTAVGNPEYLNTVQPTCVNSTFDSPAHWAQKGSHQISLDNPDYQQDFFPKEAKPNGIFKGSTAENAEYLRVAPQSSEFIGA
EGFR (Δ746-750), sequence (P00533 other isoform, or with tags, fused parts or gaps del 1-668/del 746-750 limits assumed): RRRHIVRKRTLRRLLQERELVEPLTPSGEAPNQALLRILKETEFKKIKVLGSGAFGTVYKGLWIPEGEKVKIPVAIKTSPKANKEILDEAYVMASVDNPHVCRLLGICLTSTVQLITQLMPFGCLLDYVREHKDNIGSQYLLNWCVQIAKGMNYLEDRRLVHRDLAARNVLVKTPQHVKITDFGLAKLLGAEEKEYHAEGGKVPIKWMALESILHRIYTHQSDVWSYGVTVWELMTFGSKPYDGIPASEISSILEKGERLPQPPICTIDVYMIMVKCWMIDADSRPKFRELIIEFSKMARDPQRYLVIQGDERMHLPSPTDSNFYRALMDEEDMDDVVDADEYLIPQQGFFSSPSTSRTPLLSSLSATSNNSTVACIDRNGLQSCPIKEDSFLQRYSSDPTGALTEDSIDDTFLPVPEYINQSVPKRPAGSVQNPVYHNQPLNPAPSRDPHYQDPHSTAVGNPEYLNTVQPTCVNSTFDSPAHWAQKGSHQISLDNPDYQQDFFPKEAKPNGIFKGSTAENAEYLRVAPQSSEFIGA
EGFR Δ746-750/T790M mutant, sequence (P00533 other isoform, or with tags, fused parts or gaps T790M/del 1-668/del 746-750 limits assumed): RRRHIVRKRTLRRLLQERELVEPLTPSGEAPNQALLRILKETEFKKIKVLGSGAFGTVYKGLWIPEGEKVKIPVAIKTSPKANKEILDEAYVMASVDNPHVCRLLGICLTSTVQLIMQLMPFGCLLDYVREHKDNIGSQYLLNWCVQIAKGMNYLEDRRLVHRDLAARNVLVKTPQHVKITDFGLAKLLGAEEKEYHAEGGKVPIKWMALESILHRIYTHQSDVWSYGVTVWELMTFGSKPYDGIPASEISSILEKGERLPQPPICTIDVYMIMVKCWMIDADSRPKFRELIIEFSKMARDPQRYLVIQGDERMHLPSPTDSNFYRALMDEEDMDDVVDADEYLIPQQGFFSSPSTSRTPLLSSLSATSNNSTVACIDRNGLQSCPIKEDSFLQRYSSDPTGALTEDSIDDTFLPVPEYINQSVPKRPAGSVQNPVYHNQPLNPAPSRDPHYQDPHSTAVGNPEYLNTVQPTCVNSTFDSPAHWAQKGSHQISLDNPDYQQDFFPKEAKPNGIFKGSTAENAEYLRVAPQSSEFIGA
EGFR L858R mutant, sequence (P00533 25-1210 L858R): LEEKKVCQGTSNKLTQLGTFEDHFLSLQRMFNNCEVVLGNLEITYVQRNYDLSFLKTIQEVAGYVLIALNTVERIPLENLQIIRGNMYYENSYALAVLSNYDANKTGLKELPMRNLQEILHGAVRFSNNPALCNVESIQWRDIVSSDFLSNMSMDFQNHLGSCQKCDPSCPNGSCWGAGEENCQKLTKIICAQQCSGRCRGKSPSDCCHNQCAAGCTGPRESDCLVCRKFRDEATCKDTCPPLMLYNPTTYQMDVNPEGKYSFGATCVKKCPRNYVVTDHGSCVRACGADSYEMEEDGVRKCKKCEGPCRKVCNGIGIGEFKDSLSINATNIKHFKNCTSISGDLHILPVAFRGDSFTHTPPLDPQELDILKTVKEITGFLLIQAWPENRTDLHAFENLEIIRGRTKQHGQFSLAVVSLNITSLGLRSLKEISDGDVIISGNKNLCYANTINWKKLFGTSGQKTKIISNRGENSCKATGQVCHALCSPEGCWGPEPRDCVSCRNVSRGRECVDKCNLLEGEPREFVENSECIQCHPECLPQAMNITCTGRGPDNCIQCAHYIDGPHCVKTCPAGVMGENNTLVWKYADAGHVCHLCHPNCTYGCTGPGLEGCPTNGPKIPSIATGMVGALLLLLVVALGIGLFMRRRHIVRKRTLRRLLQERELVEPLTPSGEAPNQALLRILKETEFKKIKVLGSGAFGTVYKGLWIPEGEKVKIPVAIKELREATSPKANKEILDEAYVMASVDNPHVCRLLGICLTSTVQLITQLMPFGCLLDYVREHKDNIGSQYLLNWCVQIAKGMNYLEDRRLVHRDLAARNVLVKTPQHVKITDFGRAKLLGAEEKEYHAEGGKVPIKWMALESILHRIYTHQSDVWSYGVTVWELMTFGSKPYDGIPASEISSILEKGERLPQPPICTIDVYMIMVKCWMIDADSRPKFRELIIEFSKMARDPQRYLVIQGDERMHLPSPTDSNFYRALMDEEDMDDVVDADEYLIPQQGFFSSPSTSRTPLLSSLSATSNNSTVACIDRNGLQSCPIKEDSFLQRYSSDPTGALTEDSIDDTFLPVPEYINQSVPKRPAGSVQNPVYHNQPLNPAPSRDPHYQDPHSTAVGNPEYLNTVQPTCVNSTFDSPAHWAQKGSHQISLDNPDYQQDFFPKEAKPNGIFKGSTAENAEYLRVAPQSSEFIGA
EGFR Δ746-750/T790M/C797S mutant, sequence (P00533 other isoform, or with tags, fused parts or gaps T790M/C797S/del 1-668/del 746-750 limits assumed): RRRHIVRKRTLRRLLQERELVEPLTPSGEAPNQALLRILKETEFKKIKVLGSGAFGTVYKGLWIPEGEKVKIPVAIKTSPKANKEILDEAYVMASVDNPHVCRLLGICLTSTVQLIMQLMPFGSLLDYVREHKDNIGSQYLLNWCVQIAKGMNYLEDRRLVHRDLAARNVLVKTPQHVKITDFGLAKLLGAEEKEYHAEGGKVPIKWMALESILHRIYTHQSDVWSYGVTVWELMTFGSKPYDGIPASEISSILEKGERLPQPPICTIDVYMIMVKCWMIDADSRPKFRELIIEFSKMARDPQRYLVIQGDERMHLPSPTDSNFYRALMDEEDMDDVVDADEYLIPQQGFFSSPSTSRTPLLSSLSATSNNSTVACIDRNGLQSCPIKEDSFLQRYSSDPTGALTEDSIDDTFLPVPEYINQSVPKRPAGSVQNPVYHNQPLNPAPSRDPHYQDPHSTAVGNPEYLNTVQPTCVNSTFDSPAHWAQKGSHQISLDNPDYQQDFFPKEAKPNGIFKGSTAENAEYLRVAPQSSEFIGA

Row | Compound | IC50 (EGFR (Δ746-750)) | IC50 [1] | IC50 [2] | IC50 [3] | also measured
1 | Cc1ccc2c(n1)/C=C/c1n[nH]c3cnc(nc13)-c1cnn(C)c1C(C)OCCO2 (stereo not drawn) [Cpd. 65, (18E)-8,9,16-trimethyl-8,9,11,12-tetrahydro-2H-5,3-(azenometheno)dipyrazolo[3,4-f:4′,3′-j]pyrido[2,3-n][1,4,9]dioxazacyclopentadecine] | 281 nM | 3.9 nM | 35.9 nM | 34.1 nM | 
2 | CN(C)CCNC(=O)c1ccc2c(c1)OCCOCc1c(cnn1C)-c1cc3c(n[nH]c3cn1)/C=C/2 [Cpd. 81, (11E)-N-[2-(dimethylamino)ethyl]-1-methyl-1,18,19,21-tetrahydro-8H-10,7,4-(ethan[1]yl[1,2]diylidene)pyrazolo[3,4-f][1,4,9,12,13]benzodioxatriazacyclooctadecine-15-carboxamide] | 40.1 nM |  |  |  | IC50 [4]: 14.1 nM; IC50 (EGFR L858R mutant): 28.1 nM; IC50 (EGFR WT): 94.6 nM
3 | CCc1nn(C)c2c1/C=C/c1n[nH]c3cnc(cc13)-c1cc(F)ccc1OCCN(C)C2=O [Cpd. 62, (18E)-17-ethyl-7-fluoro-13,15-dimethyl-2,12,13,15-tetrahydro-5,3-(azenometheno)dipyrazolo[3,4-f:3′,4′-j][1,4]benzoxazacyclopentadecin-14(11H)-one] | 45.5 nM | 0.5 nM | 4.1 nM | 5.7 nM | 
4 | CN(C)CCNC(=O)c1ccc2c(c1)/C=C/c1n[nH]c3cnc(cc13)-c1cnn(C)c1OCCCO2 [Cpd. 71] | 2.4 nM |  |  |  | IC50 [4]: 3.7 nM; IC50 (EGFR L858R mutant): 1.6 nM; IC50 (EGFR WT): 3.9 nM
5 | Cn1ncc2c1OCCCOc1ccccc1/C=C/c1n[nH]c3ccc-2nc13 [Cpd. 2, (18E)-8-methyl-2,8,11,12-tetrahydro-10H-3,5-ethenodipyrazolo[3,4-f:4′,3′-j][1,5,9]benzodioxazacyclopentadecine] | 49.1 nM | 29.3 nM | 22.9 nM | 16.2 nM | IC50 (EGFR L858R/T790M mutant): 301 nM; IC50 [4]: 692 nM; IC50 (EGFR L858R mutant): 258 nM; IC50 (EGFR WT): 554 nM; IC50 (EGFR L858R/C797S mutant): 595 nM
6 | Cn1ncc2c1OCCCOc1ccccc1/C=C/c1n[nH]c3cnc-2cc13 [Cpd. 1, (11E)-1-methyl-19,20-dihydro-1H,8H,18H-10,7,4-(ethan[1]yl[1,2]diylidene)pyrazolo[3,4-f][1,5,9,12,13]benzodioxatriazacyclooctadecine] | 6.8 nM | 0.22 nM | 2.1 nM | 4.8 nM | IC50 (EGFR L858R/T790M mutant): 4.1 nM; IC50 [4]: 15 nM; IC50 (EGFR L858R mutant): 29.1 nM; IC50 (EGFR WT): 46.4 nM; IC50 (EGFR L858R/C797S mutant): 55 nM
7 | Cn1ncc2c1COCCOc1ccccc1/C=C/c1n[nH]c3cnc-2cc13 [Cpd. 63, (11E)-1-methyl-1,18,19,21-tetrahydro-8H-10,7,4-(ethan[1]yl[1,2]diylidene)pyrazolo[3,4-f][1,4,9,12,13]benzodioxatriazacyclooctadecine] | 14.9 nM | 0.2 nM | 2.8 nM | 7.7 nM | 
8 | Cn1ncc2c1COCCOc1ccccc1/C=C/c1n[nH]c3cnc-2nc13 [Cpd. 16, (18E)-8-methyl-8,9,11,12-tetrahydro-2H-5,3-(azenometheno)dipyrazolo[3,4-f:4′,3′-j][1,4,9]benzodioxazacyclopentadecine] | 32.9 nM | 5.1 nM | 38.4 nM | 61.3 nM | 
9 | COC(=O)c1ccc2c(c1)OCCCOc1c(cnn1C)-c1cc3c(n[nH]c3cn1)/C=C/2 [Cpd. 67, methyl (11E)-1-methyl-19,20-dihydro-1H,8H,18H-10,7,4-(ethan[1]yl[1,2]diylidene)pyrazolo[3,4-f][1,5,9,12,13]benzodioxatriazacyclooctadecine-15-carboxylate] | 1530 nM |  |  |  | 
10 | CN(C)CCNC(=O)c1ccc2c(c1)OCCCOc1c(cnn1C)-c1cc3c(n[nH]c3cn1)/C=C/2 [Cpd. 74, (11E)-N-[2-(dimethylamino)ethyl]-1-methyl-19,20-dihydro-1H,8H,18H-10,7,4-(ethan[1]yl[1,2]diylidene)pyrazolo[3,4-f][1,5,9,12,13]benzodioxatriazacyclooctadecine-15-carboxamide] | 4 nM |  |  |  | 
11 | CN1CCC(NC(=O)c2ccc3c(c2)OCCCOc2c(cnn2C)-c2cc4c(n[nH]c4cn2)/C=C/3)CC1 [Cpd. 78, (11E)-1-methyl-N-(1-methylpiperidin-4-yl)-19,20-dihydro-1H,8H,18H-10,7,4-(ethan[1]yl[1,2]diylidene)pyrazolo[3,4-f][1,5,9,12,13]benzodioxatriazacyclooctadecine-15-carboxamide] | 5.3 nM |  |  |  | 
12 | Cn1ncc2c1OCCCOc1ccc(C(=O)N3CCCC3)cc1/C=C/c1n[nH]c3cnc-2cc13 [Cpd. 72, [(11E)-1-methyl-19,20-dihydro-1H,8H,18H-10,7,4-(ethan[1]yl[1,2]diylidene)pyrazolo[3,4-f][1,5,9,12,13]benzodioxatriazacyclooctadecin-14-yl](pyrrolidin-1-yl)methanone] | 18.3 nM |  |  |  | 
13 | CCc1c2c(nn1C)C(=O)N(C)CCOc1c[nH]c(=O)cc1-c1cc3c(n[nH]c3cn1)/C=C/2 [Cpd. 38, (18E)-17-ethyl-13,16-dimethyl-2,12,13,16-tetrahydro-5,3-(azenometheno)dipyrazolo[3,4-f:3′,4′-j]pyrido[4,3-n][1,4]oxazacyclopentadecine-7,14(8H,11H)-dione] | 964 nM |  |  |  | 

Now from value to molecule, other results behind:

Row | IC50 (EGFR (Δ746-750)) | IC50 [1] | IC50 [2] | IC50 [3] | Compound | also measured
14 | 84.4 nM | 3380 nM | 8530 nM | 11.3 nM | CN1CCOCCN(c2ccc(F)c(Cl)c2)c2cc3c(n[nH]c3cn2)/C=C/c2cn(C)nc2C1=O [Cpd. 99, (17E)-6-(3-chloro-4-fluorophenyl)-12,15-dimethyl-2,7,8,11,12,15-hexahydro-6H-5,3-(azenometheno)dipyrazolo[3,4-f:3′,4′-j][1,4,14]oxadiazacyclohexadecin-13(10H)-one] | 
15 | 240 nM |  |  |  | CCNC(=O)c1ccc2c(c1)OCCOCc1c(cnn1C)-c1cc3c(n[nH]c3cn1)/C=C/2 [Cpd. 84, (11E)-N-ethyl-1-methyl-1,18,19,21-tetrahydro-8H-10,7,4-(ethan[1]yl[1,2]diylidene)pyrazolo[3,4-f][1,4,9,12,13]benzodioxatriazacyclooctadecine-15-carboxamide] | 
16 | 17.6 nM |  |  |  | CN1CCC(CNC(=O)c2ccc3c(c2)/C=C/c2n[nH]c4cnc(cc24)-c2cnn(C)c2COCCO3)CC1 [Cpd. 94, (11E)-1-methyl-N-[(1-methylpiperidin-4-yl)methyl]-1,18,19,21-tetrahydro-8H-10,7,4-(ethan[1]yl[1,2]diylidene)pyrazolo[3,4-f][1,4,9,12,13]benzodioxatriazacyclooctadecine-14-carboxamide] | 
17 | 15.6 nM |  |  |  | CNC(=O)c1ccc2c(c1)/C=C/c1n[nH]c3cnc(cc13)-c1cnn(C)c1OCCCO2 [Cpd. 86, (11E)-N,1-dimethyl-19,20-dihydro-1H,8H,18H-10,7,4-(ethan[1]yl[1,2]diylidene)pyrazolo[3,4-f][1,5,9,12,13]benzodioxatriazacyclooctadecine-14-carboxamide] | 
18 | 16.8 nM |  |  |  | CN(C)CCNC(=O)c1ccc2c(c1)/C=C/c1n[nH]c3cnc(cc13)-c1cnn(C)c1COCCO2 [Cpd. 90, (11E)-N-[2-(dimethylamino)ethyl]-1-methyl-1,18,19,21-tetrahydro-8H-10,7,4-(ethan[1]yl[1,2]diylidene)pyrazolo[3,4-f][1,4,9,12,13]benzodioxatriazacyclooctadecine-14-carboxamide] | 
19 | 24 nM |  |  |  | Cn1ncc2c1OCCCOc1ccc(F)cc1/C=C/c1n[nH]c3cnc-2cc13 [Cpd. 100, (11E)-14-fluoro-1-methyl-19,20-dihydro-1H,8H,18H-10,7,4-(ethan[1]yl[1,2]diylidene)pyrazolo[3,4-f][1,5,9,12,13]benzodioxatriazacyclooctadecine] | 
20 | 9.7 nM |  |  |  | CN1CCC(NC(=O)c2ccc3c(c2)/C=C/c2n[nH]c4cnc(cc24)-c2cnn(C)c2OCCCO3)CC1 [Cpd. 97, (11E)-1-methyl-N-(1-methylpiperidin-4-yl)-19,20-dihydro-1H,8H,18H-10,7,4-(ethan[1]yl[1,2]diylidene)pyrazolo[3,4-f][1,5,9,12,13]benzodioxatriazacyclooctadecine-14-carboxamide] | 
